According to patent US8729053B2, “Nuclear factor kappa B pathway inhibitor composition and use of same” (The United States of America, as represented by the …, priority 2008, dated 2014):
Counter-ions that a name gives are not always drawn.

Assays:
[1] = system: STAT3; assay: Immunoblot of TPA-inducible STAT3 phosphorylation; format: cell-based; conditions: 17.0 μM and 8.5 μM pretreatment
Protocol: To measure endogenous level of several proteins in response to TPA induction and compound I, HEK293 cells were lysed with RIPA buffer (10 mM Tris-HCl pH 7.5, 1 mM EDTA, 0.1% sodium dodecyl sulfate, 0.1% deoxycholate, and protease inhibitor). Whole cell extracts were subjected to immunoblot analysis with the following antibodies: p65 (F-6), p50 (E-10), p52 (C-5), RelB (C-19), IκBα (C-21), PCNA (F-2) were obtained from Santa Cruz Biotechnology (Santa Cruz, Calif.). IKKα, IKKβ, IKKγ, phospho-IκBα, phospho-IKKα/β, phospho-IKKγ, pohospho-Stat3 (Tyr 705 and Ser 727), phospho-p65 (Ser536 and Ser276), phospho-p44/42, phospho-JNKs were purchased from Cell Signaling (Danvers, Mass.), and α-tubulin from Sigma (St. Louis, Mo.). Nuclear and cytoplasmic extracts were prepared with HEK293 cells by NE-PER Nuclear and Cytoplasmic Extraction Reagents (Pierce Biotechnology, Rockford, Ill.) according to the manufacturer's protocol.
The selectivity of compound I was evaluated by measuring phosphorylation of proteins involved in the AP-1 induction pathway. AP-1 dependent transcription can be activated by MAP Kinases JNK, ERK 1/2 (p44/42). […] At these concentrations compound I, in contrast, completely repressed major regulators in the NFκB activation pathway. JNKs are activated by a variety of environmental stresses responsible for AP-1 activation through c-Jun phosphorylation. […]

[2] = system: COX-2 promoter; assay: COX-2 promoter luciferase reporter assay in HEK293 cells; format: cell-based, human; conditions: TPA 10 ng/ml 18 hours
Protocol: All expression plasmids were transiently transfected into HEK293 cells in a 96-well plate (0.1 μg/well) by using Effectene transfection reagent (Qiagen, Valencia, Calif.) according to the manufacturer's manual. HEK293 cells were maintained in Dulbecco's modified Eagle medium (Sigma, St. Louis, Mo.) supplemented with 10% fetal bovine serum (Atlanta Biologicals, Lawrenceville, Ga.) and incubated at 37° C. in a 5% CO2 incubator. After 24 hrs incubation, the medium was changed to DMEM with 0.2% FBS, and the transfectants were exposed to various concentrations of compound I and TPA (10 ng/ml). Cells were lysed with passive lysis buffer and the luciferase assay was performed using the Firefly-Luciferase reporter assay system (Promega, Madison, Wis.) and MLX Luminometer (Dynex Technology, Chantilly, Va.).
Three different luciferase reporter genes, AP-1 reporter containing four times TRE consensus originated from GCN4 and SRE reporter purchased from Stratagene (La Jolla, Calif.) respectively are as described previously (Suzukawa et al., Environ. Health Perspect., 2002, 110, 865-70). […]
Inhibition of NFκB transactivation would be expected to result in suppressed expression of genes whose transcription depends on NFκB. Quantitative RT-PCR was used to measure endogenous levels of IL-6 mRNA, transcribed from a gene whose transcription depends on NFκB but not AP-1. […]

[3] = system: JB6 cells (clone 41); assay: JB6 soft agar cell transformation assay; format: cell-based, mouse; conditions: for Transformation response to TPA: 10 days, TPA 10 ng/ml
Protocol: JB6 cells (clone 41) were used to assess the inhibitory activity of compound I using CytoSelect 96-well Cell Transformation Assay (Cell Biolabs, Huissen, Netherlands) as Soft Agar Assay according to manufacturer's instructions. Cells were incubated for 10 days in 0.4% agar medium over 0.6% agar containing TPA or TPA with compound I or DMSO as a control. To measure anchorage-independent growth, agar-layers were dissolved and lysed. 10 μl of the lysed solutions of each well were mixed with CyQuant and the fluorescence read by iQ5 with a FAM filter of 485/520 nm. As an alternative analysis, cell dose curves of JB6 cells were quantified by the End point using CyQuant to indicate relative anchorage-independent colony number.
In order to evaluate the potential therapeutic activity of the compound, tests for the biological activity of compound I were performed. The compound is non-toxic to MCF-7, T47D, and MDA-MB-231 breast cancer cells as estimated by XTT assay at 10 μM. To determine the effects of compound I on invasion by breast cancer cell lines, a matrigel invasion assay was used. The levels of phosphorylated IκBα were confirmed in TPA treated ER-positive (MCF-7 and T47D) and ER-negative (MDA-MB-231) breast cancer cell lines and compared the levels to those after pretreatment with compound I. Although induced levels of phosphorylated IκBα varied with the cell line, IκBα phosphorylation was eliminated by compound I treatment in all three breast cancer cell lines. Compound I also produced no effect on the estrogen receptor activity in the ER-positive breast cancer cells using ERE promoter luciferase reporter assay. Invasion capacity of breast cancer cells was increased by TPA stimulation compared to DMSO treated vehicle control. […] Following anchorage-independent colony induction in TPA-treated cells without or with compound I, colonies were lysed and measured with CyQuant GR Dye to detect DNA by fluorescence plate reader as a measure of colony count. Total transformed colony numbers were calculated from RFU and cell dose curve of JB6 cells. […]

Structure (SMILES): Cc1cc(N)ccc1N=Nc1ccc(S(=O)(=O)CCOS(=O)(=O)O)cc1 [compound I, 2-(4-((4-amino-2-methylphenyl)diazenyl)phenylsulfonyl)ethyl hydrogen sulfate]
- TPA inducible phosphorylation of STAT3 [1]: no repression
- COX-2 luciferase activity [2]: dose-dependent inhibition
- Tumor promoter induced transformation of JB6 cells [3]: inhibits
- Transformation response to TPA ([3]; 1.1 μM): decreased
- Transformation response to TPA ([3]; 17.0 μM to 2.1 μM): repressed to below vehicle control level
